One may read the pIC50 as the negative decadic logarithm of the IC50, by convention in mol/L.

pIC50: −log10 of the molar value.

In this assay the target is T1, CYP1A2 (Homo sapiens, UniProt P05177).
T1 sequence (P05177 1-516): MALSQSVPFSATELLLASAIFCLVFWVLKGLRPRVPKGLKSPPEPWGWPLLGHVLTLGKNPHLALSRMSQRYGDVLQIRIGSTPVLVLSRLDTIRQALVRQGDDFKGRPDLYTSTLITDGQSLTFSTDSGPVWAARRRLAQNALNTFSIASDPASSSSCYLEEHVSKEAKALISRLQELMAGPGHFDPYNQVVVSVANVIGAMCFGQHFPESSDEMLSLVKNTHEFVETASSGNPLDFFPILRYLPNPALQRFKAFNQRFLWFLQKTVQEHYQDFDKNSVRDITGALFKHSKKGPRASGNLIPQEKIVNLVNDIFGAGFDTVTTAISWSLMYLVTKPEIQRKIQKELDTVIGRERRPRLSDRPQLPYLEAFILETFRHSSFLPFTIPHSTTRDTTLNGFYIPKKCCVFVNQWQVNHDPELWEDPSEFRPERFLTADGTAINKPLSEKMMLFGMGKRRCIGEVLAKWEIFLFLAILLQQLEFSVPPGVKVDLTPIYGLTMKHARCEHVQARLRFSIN
Put plainly: Human CYP inhibition in human liver microsomes. The class given is in vitro ADME. Conditions: substrate phenacetin, read-out: CYP inhibition IC50, 1A2. The protocol: Study samples (containing either control inhibitor or test compound) were added into the tubes, vortexed gently and pre-incubated for 5 min at 37° C. 20 μL of NADPH solution was aliquoted into all tubes, then vortexed to start the reaction and to assure adequate mixture of the NADPH. After mixing, the tubes were incubated for 20 min at 37° C. in a shaking water bath and then quenched in […] formic acid/acetonitrile solution. After quenching, the samples were vortexed vigorously for 1 min and centrifuged at 4,000 rpm for 15 min (4° C.). 100 μL of supernatant was transferred to 0.65 ml tubes for LCMS analysis by the bioanalytical method described earlier. The CYP450 substrates and control inhibitors for each enzyme was as follows: CYP1A2 (phenacetin, naphthoflavone), CYP2C9 (diclofenac, sulfaphenazole), CYP2C19 (omeprazole, tranylcypromine), CYP2D6 (dextromethorphan, quinidine), CYP3A4 (midazolam, ketoconazole).
On the technique in general: Liver microsomes are a subcellular fraction often used to study metabolism.

As for `N#C/C=C/c1ccc2c(S(=O)(=O)n3nc(Nc4ccc(C#N)c(Cl)c4)nc3N)cccc2c1` [Compound 20, 4-[[5-amino-1-[[6-[2-cyanovinyl]-1-naphthyl]sulfonyl]-1,2,4-triazol-3-yl]amino]-2-chloro-benzonitrile], the negative-log IC50 (pIC50) is under 4.30.

Source of the values: patent US20250179033A1 (priority 2021, published 2025).
